This is an account of results in US7425557B2, “Inhibitors of glycogen synthase kinase 3” (Novartis Vaccines and Diagnostics, Inc., priority 1998, dated 2008).

The target in this experiment is human GSK3β (Homo sapiens, UniProt P49841). Briefly: Screening for GSK3 inhibitory activity using a cell-free assay. The format is biochemical. To be noted: read-out: IC50 with respect to GSK3. As for the experimental part:
This amount represents the amount of radiolabeled phosphate incorporated into the peptide substrate.
The captured radiolabeled peptide substrate can be quantitated in a scintillation counter using known methods. […] If an inhibitor is present during the reaction, GSK3 activity will be reduced, and a smaller quantity of radiolabeled phosphate will thus be incorporated into the peptide substrate.
Pyrimidine and pyridine compounds of the present invention were dissolved in DMSO, then tested for inhibition of human GSK3β (the nucleotide sequence for human GSK3β appears in GenBank under Accession No. L33801).
While the reaction was proceeding, streptavidin-coated Labsystems “Combiplate 8” capture plates (Labsystems, Helsinki, Finland) were blocked by incubating them with 300 μl/well of PBS containing 1% bovine serum albumin for at least one hour at room temperature. The blocking solution was then removed by aspiration, and the capture plates were filled with 100 ul/well of stopping reagent (50 μM ATP/20 mM EDTA).
When the three hour enzyme reaction was finished, triplicate 100 μl aliquots of each reaction mix were transferred to three wells containing stopping solution, one well on each of the three capture plates, and the well contents were mixed well. […] Finally, 200 μl of Microscint-20 scintillation fluid was added to each well of the plate. The plates were coated with plate sealers, then left on a shaker for 30 minutes. Each capture plate was counted in a Packard TopCount scintillation counter (Meridian, Conn.) and the results were plotted as a function of compound concentration.

SMILES strings stand for the structures. pIC50: −log10 of the molar value.

Sequence of human GSK3β (P49841 whole entry): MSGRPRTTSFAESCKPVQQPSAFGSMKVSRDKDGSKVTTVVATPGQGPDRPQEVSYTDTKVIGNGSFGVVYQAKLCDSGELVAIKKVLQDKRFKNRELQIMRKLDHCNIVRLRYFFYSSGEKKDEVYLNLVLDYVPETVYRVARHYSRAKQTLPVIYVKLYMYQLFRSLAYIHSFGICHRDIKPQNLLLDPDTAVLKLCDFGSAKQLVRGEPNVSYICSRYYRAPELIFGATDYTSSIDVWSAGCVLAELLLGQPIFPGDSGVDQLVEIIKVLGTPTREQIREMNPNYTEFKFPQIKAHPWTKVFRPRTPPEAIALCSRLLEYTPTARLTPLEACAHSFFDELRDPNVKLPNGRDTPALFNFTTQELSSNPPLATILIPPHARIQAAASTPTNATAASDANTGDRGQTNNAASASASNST

The pIC50 is −log10 of the IC50, conventionally taken in molar units. With `O=[N+]([O-])c1ccc(NCCNc2nccc(-c3cccc(O)c3)n2)nc1` [3-[2-({2-[(5-nitro-2-pyridyl)amino]ethyl}-amino)pyrimidin-4-yl]phenol], the pIC50 was not below 5.00.
Turning to `N#Cc1cccc(-c2ccnc(NCCNc3ccc([N+](=O)[O-])cn3)n2)c1` [3-[2-({2-[(5-nitro-2-pyridyl)amino]ethyl}amino)pyrimidin-4-yl]benzenecarbonitrile], the pIC50 is not below 5.00.
As to `N#Cc1ccc(-c2nc(NCCNc3ccc([N+](=O)[O-])cn3)nc(-c3ccc(C#N)cc3)c2C(=O)O)cc1` [4,6-bis(4-cyanophenyl)-2-({2-[(5-nitro(2-pyridyl))amino]ethyl}-amino)pyrimidine-5-carboxylic acid], the pIC50 was not below 6.00.
Take `O=C(O)c1c(-c2ccc([N+](=O)[O-])cc2)nc(NCCNc2ccc([N+](=O)[O-])cn2)nc1-c1ccc([N+](=O)[O-])cc1` [4,6-bis(4-nitrophenyl)-2-({2-[(5-nitro(2-pyridyl))amino]ethyl}amino)pyrimidine-5-carboxylic acid]: the pIC50 was not below 5.00.
Take `N#Cc1cnc(NCCNc2ccc([N+](=O)[O-])cn2)nc1-c1ccc(Cl)cc1Cl` [4-(2,4-dichlorophenyl)-2-({2-[(5-nitro(2-pyridyl))amino]-ethyl}amino)pyrimidine-5-carbonitrile]: the pIC50 was not below 5.00.
With `COc1ccccc1-c1nc(NCCNc2ccc([N+](=O)[O-])cn2)ncc1C(=O)O` [4-(2-methoxyphenyl)-2-({2-[(5-nitro(2-pyridyl))amino]ethyl}amino)pyrimidine-5-carboxylic acid] the figure was not below 5.00; with `COc1cccc(CCNc2nccc(-c3ccc(C(N)=O)cc3)n2)c1OC` [4-(2-{[2-(2,3-dimethoxyphenyl)ethyl]amino}pyrimidin-4-yl)benzamide], not below 6.00; with `COc1ccc(OC)c(CCNc2nccc(-c3ccc(C(N)=O)cc3)n2)c1` [4-(2-{[2-(2,5-dimethoxyphenyl)ethyl]amino}pyrimidin-4-yl)benzamide], not below 6.00.
For the molecule `COc1ccc(OC)c(CCNc2nccc(-c3ccc(C#N)cc3)n2)c1` [4-(2-{[2-(2,5-dimethoxyphenyl)ethyl]amino}pyrimidin-4-yl)benzene-carbonitrile], the pIC50 is not below 5.00.
Turning to `COc1ccccc1CCNc1nccc(-c2ccc(C(N)=O)cc2)n1` [4-(2-{[2-(2-methoxyphenyl)-ethyl]amino}pyrimidin-4-yl)benzamide], the pIC50 is not below 6.00.
Turning to `NC(=O)c1ccc(-c2ccnc(NCCNc3ccccn3)n2)cc1` [4-(2-{[2-(2-pyridylamino)ethyl]-amino}pyrimidin-4-yl)benzamide], the pIC50 is not below 6.00.
With `N#Cc1ccc(-c2ccnc(NCCNc3ccccn3)n2)cc1` [4-(2-{[2-(2-pyridylamino)ethyl]amino}pyrimidin-4-yl)benzenecarbonitrile] the figure was not below 5.00; with `NC(=O)c1ccc(-c2ccnc(NCCNc3ccc4ccccc4n3)n2)cc1` [4-(2-{[2-(2-quinolylamino)ethyl]amino}pyrimidin-4-yl)benzamide], not below 6.00; with `COc1cccc(CCNc2nccc(-c3ccc(C(N)=O)cc3)n2)c1` [4-(2-{[2-(3-methoxyphenyl)ethyl]amino}pyrimidin-4-yl)-benzamide], not below 5.00.
Take `NC(=O)c1ccc(-c2ccnc(NCCc3ccc(F)cc3)n2)cc1` [4-(2-{[2-(4-fluorophenyl)ethyl]amino}pyrimidin-4-yl)benzamide]: the pIC50 was not below 5.00.
On to `NC(=O)c1ccc(-c2ccnc(NCCc3ccc([N+](=O)[O-])cc3)n2)cc1` [4-(2-{[2-(4-nitrophenyl)ethyl]amino}pyrimidin-4-yl)benzamide], for which the pIC50 is not below 5.00.
`NC(=O)c1ccc(-c2ccnc(NCCNc3ncccn3)n2)cc1` [4-(2-{[2-(pyrimidin-2-ylamino)ethyl]amino}pyrimidin-4-yl)benzamide]: the pIC50 is not below 6.00.
Take `NC(=O)c1ccc(-c2ccnc(NCCCOc3ccc(Cl)cc3Cl)n2)cc1` [4-(2-{[3-(2,4-dichlorophenoxy)propyl]amino}pyrimidin-4-yl)benzamide]: the pIC50 is not below 5.00.
